From patent US20080064053A1, “Genotoxicity Testing” (priority 2003, published 2008)
Where two headings read alike, the source gives them in different places.

Assays:
[1] = test system: RNR3 regulatory element-GFP reporter; experiment: RNR3-GFP reporter microplate assay (pGenRNR3); type: cell-based, Saccharomyces cerevisiae; conditions: yeast test strain transformed with pGenRNR3
Excerpt: In addition to the RAD54 vectors described in the previous Examples, the inventors constructed an FF18984 reporter strain containing a replicative plasmid harbouring an RNR regulatory element. The vectors pGenRNR2 or pGenRNR3 are shown in FIGS. 24 and 25, respectively, and contain the upstream non-coding DNA sequence of the RNR2 gene or RNR3 gene fused to the yeast-enhanced Aequorea victoria GFP gene. A control FF18984 strain containing an identical plasmid except that 2 base pairs have been removed at the start of the GFP gene, such that no GFP is made, was also examined.
In order to test the brightness of the reporter for RNR3 constructs, similar methodology was used as for RAD54 constructs, as described in the previous Examples, but using instead pGENRNR3.

[2] = test system: RAD54 promoter-GFP reporter (pGen001); conditions: for GSA genotoxicity result: GenT01 yeast, overnight at 25° C., 2% DMSO diluent, no S9
[3] = test system: yeast strain GenT01 (FF18984); experiment: GreenScreen assay (GSA), cytotoxicity: final cell density by absorbance; conditions: for Maximum Concentration (% v/v), suggested maximum tolerable solvent concentration: solvent in GSA test samples, toxic at higher concentrations
Protocol: The following standard protocol was followed. A 1 mM stock of the test chemical was prepared in 2% v/v aqueous DMSO, and used to make 2 identical dilution series across the microplate and a ‘control’ (see below). To achieve this, 150 microlitres of the test chemical solution were put into 2 microplate wells. Each sample was serially diluted by transferring 75 microlitres into 75 microlitres of 2% DMSO, mixing, and then taking 75 microlitres out and into the next well. This produced 9 serial dilutions of 75 microlitres each.
75 microlitres of the yeast suspension were added to each well of the diluted chemical: GenT01 to one series and GenC01 to the second, and to appropriate standards and controls. After the plates were filled, they were sealed using either a gas permeable membrane (Breath-easy, Diversified Biotech, USA) or a plastic lid, and then incubated without shaking, overnight at 25° C.
Following overnight incubation, fluorescence and absorbance data were collected from the microplates. […] Absorbance was measured through a 620 nm filter in both instruments. […] Fluorescence data were divided by absorbance data to give ‘brightness units’, the measure of average GFP induction per cell. […] In this way, one can distinguish between a small number of highly fluorescent cells and a large number of weakly fluorescent cells. In order to correct for induced cellular autofluorescence and intrinsic compound fluorescence, the brightness values for the GenC01 strain were subtracted from those of GenT01. This makes visual assessment of the data more reliable.
The cytotoxicity threshold is set at 80% of the cell density reached by the untreated control cells.
Table 12 lists chemicals/solvents that are often used with test samples, to promote dissolution etc. […] If these chemicals are used to dissolve compound stock solutions, they should also be included in the diluent used to make the compound dilution series. […] Interference of DMSO, a free radical scavenger, in the recombinogenic properties of several oxidising agents has previously been reported.

[4] = test system: bacteria; conditions: cited from earlier work
[5] = in vivo; cited from earlier work
[6] = test system: SOS umuC; conditions: cited from earlier work
[7] = test system: SOS lux; conditions: S9 −; cited from earlier work
[8] = other genotoxicity tests and cancer studies; cited from earlier work
[9] = requires S9 metabolic activation

For `CNNC` [1,2-dimethylhydrazine], the “fluorescence induction by the reporter” value [1] was “increases with increasing concentration” and the GSA genotoxicity result [2] was “induced”.

With `CC(O)CCl` (stereo not shown) [1-Chloro-2-propanol] the “Maximum Concentration (% v/v), suggested maximum tolerable solvent concentration” value (from here on “Maximum Concentration (% v/v)”) [3] was 2 % v/v.

With `CC(=O)Nc1ccc2c(c1)Cc1ccccc1-2` [2-acetamidofluorene] the GSA genotoxicity result [2] was “negative”.

In the case of `Nc1cc([N+](=O)[O-])ccc1O` [2-amino-4-nitrophenol], the GSA genotoxicity result [2] is given as “positive” and the Ames test result [4, 9] is given as “positive”.

For `Nc1ccc2cc3ccccc3cc2c1` [2-aminoanthracene], the GSA genotoxicity result [2] was “negative”.

For `Nc1nc[nH]n1` [3-amino-1,2,4-triazole], the GSA genotoxicity result [2] is listed as “positive” and the “cancer data / carcinogenicity” value [5] is listed as “positive”.

In the case of `Nc1ccc(Oc2ccc(N)cc2)cc1` [4,4-oxydianiline], the GSA genotoxicity result [2] is reported as “negative”.

For `Nc1c2ccccc2nc2ccccc12` [9-aminoacridine], the GSA genotoxicity result [2] was “negative”.

For `c1ccc2c(c1)cc1ccc3cccc4ccc2c1c34` [BENZO[A]PYRENE, benzo[a]pyrene], the GSA genotoxicity result [2] was “positive”.

With `O=Cc1ccccc1` [Benzaldehyde] the GSA cytotoxicity result ([3]; GenT01 yeast, overnight at 25° C.) was “cytotoxic”.

In the case of `N.N.[Cl][Pt][Cl]` [CISPLATIN, cisplatin], the “GSA (M), lowest effective concentration (LEC)” value (“GSA (M)” below) ([2]; S9 −) is given as 6.2e-05 M and the “SOS UMUC ASSAY (M), LEC” value ([6]; S9 −) is given as 9e-07 M.

With `ClC(Cl)(Cl)Cl` [Carbon tetrachloride] the “Maximum Concentration (% v/v)” value [3] was 2 % v/v.

For `C[S+](C)[O-]` [Dimethylsulfoxide], the “Maximum Concentration (% v/v)” value [3] was 5 % v/v.

For `CCOS(C)(=O)=O` [EMS, Ethyl methanesulfonate], the “fluorescence induction by the reporter” value [1] was “increases with increasing concentration”.

For `CCO` [Ethanol], the “Maximum Concentration (% v/v)” value [3] was 2 % v/v.

For `OO` [HYDROGEN PEROXIDE], the “GSA (M)” value ([2]; Saccharomyces cerevisiae) is listed as 0.002 M and the “SOS LUX ASSAY (M), LEC” value [7] is listed as 5.9e-05 M.

In the case of `CO[C@@]12[C@H](COC(N)=O)C3=C(C(=O)C(C)=C(N)C3=O)N1C[C@@H]1N[C@@H]12` [MITOMYCIN C, mitomycin C], the “SOS UMUC ASSAY (M), LEC” value ([6]; S9 −) is listed as 1e-08 M and the “SOS LUX ASSAY (M), LEC” value [7] is listed as 4.7e-08 M.

In the case of `CO` [Methanol], the “Maximum Concentration (% v/v)” value [3] is reported as 2 % v/v.

In the case of `CCn1cc(C(=O)O)c(=O)c2ccc(C)nc21` [NALIDIXIC ACID], the “GSA (M)” value ([2]; S9 −) is reported as 1.6e-06 M.

For `Cc1cc2nc3ccc(N(C)C)cc3nc2cc1N.Cl` [Neutral Red], the GSA genotoxicity result [2] is listed as “positive” and the Ames test result [4] is listed as “positive”.

In the case of `[N-]=[N+]=[N-]` [SODIUM AZIDE], the “GSA (M)” value ([2]; Saccharomyces cerevisiae) is given as 1e-05 M and the “SOS UMUC ASSAY (M), LEC” value [6] is given as 0.0054 M.

For `C1CCOC1` [Tetrahydrofuran], the “Maximum Concentration (% v/v)” value [3] was 2 % v/v.

For `Nc1ccccc1` [aniline], the GSA genotoxicity result [2] is given as “negative”, the Ames test result [4] is given as “not detectable” and the Ames test result ([4]; with and without S9) is given as “negative”. The “cancer data / carcinogenicity” value [5] was “carcinogens”.

In the case of `CN/C(=N/CCSCc1nc[nH]c1C)NC#N` [cimetidine], the GSA genotoxicity result [2] is given as “positive” and the “corresponding data from other tests” value [8] is given as “no corresponding positive data”.

In the case of `COc1cc2c(c(OC)c1OC)-c1ccc(OC)c(=O)cc1[C@@H](NC(C)=O)CC2` [colchicine], the GSA genotoxicity result [2] is reported as “responds”.

In the case of `Clc1ccc(COC(Cn2ccnc2)c2ccc(Cl)cc2Cl)cc1` (stereo not shown) [econazole], the GSA genotoxicity result [2] is reported as “responds”.

For `Cc1c2ccncc2c(C)c2c1[nH]c1ccccc12` [ellipticine], the GSA genotoxicity result [2] was “responds”.

In the case of `CC[n+]1c(-c2ccccc2)c2cc(N)ccc2c2ccc(N)cc21` [ethidium bromide], the Ames test result [4, 9] is listed as “positive”.

In the case of `COc1cc([C@@H]2c3cc4c(cc3[C@@H](O[C@@H]3O[C@@H]5CO[C@@H](C)O[C@H]5[C@H](O)[C@H]3O)[C@H]3COC(=O)[C@H]23)OCO4)cc(OC)c1O` [etoposide], the GSA genotoxicity result [2] is reported as “responds”.

For `CN(C)CCN(Cc1cccs1)c1ccccn1` [methapyraline], the GSA genotoxicity result [2] was “induced”.

For `C[n+]1ccc(-c2cc[n+](C)cc2)cc1` [methyl viologen], the GSA genotoxicity result [2] was “induced”.

In the case of `CCCCC(CC)COC(=O)c1ccccc1C(=O)OCC(CC)CCCC` (stereo not shown) [phthalic acid bis(2-ethylhexyl) ester], the GSA genotoxicity result [2] is reported as “induced”.

For `C=CCc1ccc2c(c1)OCO2` [safrole], the Ames test result [4] is given as “not detectable” and the “cancer data / carcinogenicity” value [5] is given as “carcinogens”.

In the case of `NC(N)=S` [thiourea], the Ames test result [4] is given as “not detectable” and the “cancer data / carcinogenicity” value [5] is given as “carcinogens”.

In the case of `CCOC(N)=O` [urethane], the Ames test result [4] is given as “not detectable” and the “cancer data / carcinogenicity” value [5] is given as “carcinogens”.

In the case of bleomycin, the GSA genotoxicity result [2] is reported as “induced”.

For phleomycin, the GSA genotoxicity result [2] was “induced”.

In the case of proflavin hemisulfate, the GSA genotoxicity result [2] is listed as “positive” and the Ames test result [4, 9] is listed as “positive”.

In the case of tritolyl phosphate, the “corresponding data from other tests” value [8] is given as “no corresponding positive data”.
